Where a name gives a salt, the structure may show the parent alone. Read-outs that look alike come from different tables or passages of the source.
How the values were obtained:
HBV [1] = experiment: HBV life cycle analysis in HepG2.2.15 cells; assay type: cell-based, hepatitis B virus; settings: ETV 1 μM, GLS4 1 μM, AB-161 100 nM
HBV [2] = experiment: In vitro combination study in HepG2.2.15 cells; assay type: cell-based, hepatitis B virus; settings: for interference with HBsAg inhibition by AB-161: HepG2.2.15, combined with AB-161; for effect on the levels of HBsAg: HepG2.2.15, compound alone; for Antagonism / Synergy / Conclusion (combination effect): Inhibitor A combined with AB-161, HBV DNA; for Antagonism / Synergy: 99.9% confidence; for Conclusion (combination effect): Prichard and Shipman criteria
Wild-type HBV = experiment: HBV polymerase variant phenotyping in Huh-7: wild-type; settings: Hepatitis B virus, Huh-7, read-out: HBV DNA, EC50
monkeys = test system: monkeys; design: method as in earlier work; settings: 9 months dosing; cited from earlier work
rats [3] = settings: cited from earlier work
[4] = plasma, cited from earlier work
dogs = settings: dog, in vivo; cited from earlier work
rats [5] = settings: rat, in vivo; cited from earlier work

SMILES | HBV DNA replication (HBV [1]) | intracellular HBV RNA (pgRNA, preS/S RNA) (HBV [1]) | viral proteins: HBV core and capsid assembly (HBV [1]) | interference with HBsAg inhibition by AB-161 (HBV [2]) | effect on the levels of HBsAg (HBV [2]) | Antagonism (HBV [2]) [µM^2%] | Synergy (HBV [2]) [µM^2%] | Conclusion (combination effect) (HBV [2]) | also measured
CCOC(=O)C1=C(CN2CCOCC2)NC(c2nccs2)=NC1c1ccc(F)cc1Br (centres unmarked) [GLS4] | substantially reduced | no effect | substantially reduced | – | – | – | – | – | –
CC(C)OC(=O)OCOP(=O)(CO[C@H](C)Cn1cnc2c(N)ncnc21)OCOC(=O)OC(C)C [TDF, tenofovir disoproxil fumarate] | – | – | – | did not interfere | do not affect | −0.43 ± 0.744 | 0.00 ± 0.00 | Additive | –
C=C1[C@H](CO)[C@@H](O)C[C@@H]1n1cnc2c(=O)[nH]c(N)nc21 [ETV, entecavir] | profoundly inhibited | no effect | no effect | did not interfere | do not affect | −3.99 ± 3.59 | 0.00 ± 0.00 | Additive | EC50 (Wild-type HBV): 17 nM; EC50 (HBV [2]; Hepatitis B virus, HepG2.2.15, read-out: Inhibitor A EC50): 5.1 ± 1.1 nM
COCCCOc1cc2c(cc1OC)-c1cc(=O)c(C(=O)O)cn1[C@H](C(C)C)C2 [RG7834] | – | – | – | – | – | – | – | – | neurotoxicity (monkeys): dose- and time-dependent neurotoxicity; neurotoxicity (rats [3]; 6 months dosing): dose- and time-dependent neurotoxicity; male reproductive adverse events (rats [3]): abnormal sperm and testicular changes; protein binding ([4]; species not stated): ~56%
COCCCOc1cc2c(nc1OC)-c1cc(=O)c(C(=O)O)cn1[C@H](C(C)C)C2 [AB-452, (S)-6-Isopropyl-2-methoxy-3-(3-methoxypropoxy)-10-oxo-5,10-dihydro-6H-pyrido [1,2-h][1,7]naphthyridine-9-carboxylic Acid] | – | – | – | – | – | – | – | – | histopathology of spinal nerves (dogs): axonal degeneration; findings in male reproductive tissues (rats [5]): Decreased epididymis and minimal-to-mild spermatid depletion; histopathology of sciatic nerves (rats [5]): axonal degeneration; protein binding [4]: ~50%

Source: paper PMC10975527 (Viruses, 2024)
